Read-outs that look alike come from different tables or passages of the source. Starred links: 1 amine or outer side, 2 acyl side, 3 side chain; linkers in the order of their positions; H or OH if unused. Positions of bridges follow the written chain, without caps; N, C: chain ends. Non-standard residues stand in square brackets, D forms with d. Chains are numbered I, II in the order given. No end group written: not given here. X3 = O=C(CCOCCN(CCOCCC(=O)NCCOCCOCCOCCOCCOCCOCCOCCOCCOCCOCCOCCOCCOCCOCCOCCOCCOCCOCCOCCOCCOCCOCCOCCn1cc(CCC(=O)[*:2])nn1)CCOCCC(=O)NCCOCCOCCOCCOCCOCCOCCOCCOCCOCCOCCOCCOCCOCCOCCOCCOCCOCCOCCOCCOCCOCCOCCOCCn1cc(CCC(=O)[*:3])nn1)NCCOCCOCCOCCOCCOCCOCCOCCOCCOCCOCCOCCOCCOCCOCCOCCOCCOCCOCCOCCOCCOCCOCCOCCn1cc(CCC(=O)[*:1])nn1; X1 = O=C(C[*:1])N1CCN(C(=O)C[*:2])CCN(C(=O)C[*:3])CC1; 1Nal = N[C@@H](Cc1cccc2ccccc12)C(=O)O
How the values were obtained:
[1] = biological target: T1, human P-Selectin protein (Homo sapiens, UniProt P16109); assay: SPR binding assay (Biacore); conditions: Affinity KD determined by SPR, recombinant biotinylated human P-Selectin, 25° C.
T1 sequence (P16109 42-830): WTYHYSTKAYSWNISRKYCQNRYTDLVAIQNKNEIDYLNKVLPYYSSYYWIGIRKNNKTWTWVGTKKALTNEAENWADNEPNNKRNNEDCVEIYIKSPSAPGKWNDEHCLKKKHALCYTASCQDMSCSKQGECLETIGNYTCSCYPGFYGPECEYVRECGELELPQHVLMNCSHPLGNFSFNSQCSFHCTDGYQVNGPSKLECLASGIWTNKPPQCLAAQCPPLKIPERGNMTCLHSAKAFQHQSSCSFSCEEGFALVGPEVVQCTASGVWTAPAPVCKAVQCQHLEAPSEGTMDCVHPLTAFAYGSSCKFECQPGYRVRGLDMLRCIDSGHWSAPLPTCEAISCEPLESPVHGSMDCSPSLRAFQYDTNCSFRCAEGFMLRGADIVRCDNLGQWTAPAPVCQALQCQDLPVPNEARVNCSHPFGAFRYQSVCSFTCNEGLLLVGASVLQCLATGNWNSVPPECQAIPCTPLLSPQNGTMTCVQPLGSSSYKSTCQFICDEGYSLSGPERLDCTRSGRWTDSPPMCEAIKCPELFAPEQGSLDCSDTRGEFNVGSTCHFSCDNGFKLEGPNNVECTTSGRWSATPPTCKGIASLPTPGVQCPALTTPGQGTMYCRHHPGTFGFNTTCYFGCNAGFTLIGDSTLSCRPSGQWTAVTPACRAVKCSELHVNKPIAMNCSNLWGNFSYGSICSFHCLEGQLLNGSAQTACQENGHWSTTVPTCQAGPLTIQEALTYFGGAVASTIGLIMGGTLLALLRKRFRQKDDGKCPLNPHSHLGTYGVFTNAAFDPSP
Method in brief: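 Biotinylated recombinant human P-Selectin was captured on a streptavidin chip (1000-1500 RU), and monomeric peptides were injected in PBS/0.05% Tween 20 with 0.5% DMSO at 25 °C (top 200 nM–50 μM, 2- or 3-fold series). Double-referenced data were fitted to a kinetic model with mass transport to give ka, kd and KD.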

[2] = biological target: T2, P-Selectin:PSGL1 interaction (Homo sapiens, UniProt P16109); assay: Receptor ligand inhibition assay (P-Selectin binding to HL-60 cells); format: cell-based; conditions: for Inhibition at top concentration: 100−% response at top concentration
T2 construct: host or cells: HL-60 cells (ATCC, CCL-240) supply the PSGL-1 partner endogenously
T2 sequence (P16109 42-771 limits assumed): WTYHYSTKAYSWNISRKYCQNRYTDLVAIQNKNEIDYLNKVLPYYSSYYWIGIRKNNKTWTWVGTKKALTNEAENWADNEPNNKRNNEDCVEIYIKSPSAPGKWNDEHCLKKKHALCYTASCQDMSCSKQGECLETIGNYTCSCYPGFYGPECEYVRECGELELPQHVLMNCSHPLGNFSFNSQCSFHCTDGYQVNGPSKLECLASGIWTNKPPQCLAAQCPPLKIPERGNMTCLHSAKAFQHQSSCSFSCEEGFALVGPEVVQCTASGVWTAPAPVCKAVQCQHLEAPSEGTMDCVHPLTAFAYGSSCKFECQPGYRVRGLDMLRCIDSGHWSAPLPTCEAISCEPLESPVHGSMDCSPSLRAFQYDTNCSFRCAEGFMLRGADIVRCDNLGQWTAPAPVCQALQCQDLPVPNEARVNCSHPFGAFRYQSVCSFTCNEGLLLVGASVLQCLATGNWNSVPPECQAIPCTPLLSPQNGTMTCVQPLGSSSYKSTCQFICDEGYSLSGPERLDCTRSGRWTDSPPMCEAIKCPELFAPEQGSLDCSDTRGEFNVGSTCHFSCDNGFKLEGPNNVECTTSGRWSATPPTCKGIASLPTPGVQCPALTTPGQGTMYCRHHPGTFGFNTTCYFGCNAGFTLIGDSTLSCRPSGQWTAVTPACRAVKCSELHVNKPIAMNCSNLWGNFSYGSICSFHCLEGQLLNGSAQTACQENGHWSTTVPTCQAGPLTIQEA
Method in brief: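 Serial dilutions in HEPES buffer, pH 7.4, with 1% BSA and 0.5% DMSO were preincubated 15 min at room temperature with P-selectin (5 nM final). HL-60 cells with far-red WGA and AF488-streptavidin were then added for 2 h, binding read by microplate cytometry; IC50 from four-parameter logistic fit, % inhibition as 100−% response at top concentration.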

[3] = 5 nM P-Selectin, HL-60 cells, geomean of n=3, read-out: IC50

Compound | Kd [1] | IC50 [2] | Inhibition at top concentration ([2]; geomean of n=3) | IC50 [2, 3]
CC(C)C[C@@H]1NC(=O)[C@H](CO)NC(=O)[C@@H]2CCCN2C(=O)[C@H](C(C)C)NC(=O)[C@H](CC(=O)O)NC(=O)[C@@H]2CSCC(=O)N3CCN(CCN(CC3)C(=O)CSC[C@@H](C(=O)N[C@@H](C)C(=O)N[C@@H](CCCCNC(=O)CCc3cn(CCOCCOCCOCCOCCOCCOCCOCCOCCOCCOCCOCCOCCOCCOCCOCCOCCOCCOCCOCCOCCOCCOCCOCCNC(=O)CCOCC(COCCC(=O)NCCOCCOCCOCCOCCOCCOCCOCCOCCOCCOCCOCCOCCOCCOCCOCCOCCOCCOCCOCCOCCOCCOCCOCCn4cc(CCC(=O)NCCCC[C@H](NC(=O)[C@H](C)NC(=O)[C@@H]5CSCC(=O)N6CCN7CCN(CC6)C(=O)CSC[C@H](NC(=O)[C@H](Cc6cccc8ccccc68)NC(=O)[C@H](CC(=O)O)NC(=O)[C@H](C)NC(=O)[C@H](CC(=O)O)NC(=O)[C@@H](NC(=O)[C@H](C)N)CSCC7=O)C(=O)N[C@@H](CC(=O)O)C(=O)N[C@@H](C(C)C)C(=O)N6CCC[C@H]6C(=O)N[C@@H](CO)C(=O)N[C@@H](CC(C)C)C(=O)N6CCC[C@H]6C(=O)N5)C(N)=O)nn4)(COCCC(=O)NCCOCCOCCOCCOCCOCCOCCOCCOCCOCCOCCOCCOCCOCCOCCOCCOCCOCCOCCOCCOCCOCCOCCOCCn4cc(CCC(=O)NCCCC[C@H](NC(=O)[C@H](C)NC(=O)[C@@H]5CSCC(=O)N6CCN7CCN(CC6)C(=O)CSC[C@H](NC(=O)[C@H](Cc6cccc8ccccc68)NC(=O)[C@H](CC(=O)O)NC(=O)[C@H](C)NC(=O)[C@H](CC(=O)O)NC(=O)[C@@H](NC(=O)[C@H](C)N)CSCC7=O)C(=O)N[C@@H](CC(=O)O)C(=O)N[C@@H](C(C)C)C(=O)N6CCC[C@H]6C(=O)N[C@@H](CO)C(=O)N[C@@H](CC(C)C)C(=O)N6CCC[C@H]6C(=O)N5)C(N)=O)nn4)COCCC(=O)NCCOCCOCCOCCOCCOCCOCCOCCOCCOCCOCCOCCOCCOCCOCCOCCOCCOCCOCCOCCOCCOCCOCCOCCn4cc(CCC(=O)NCCCC[C@H](NC(=O)[C@H](C)NC(=O)[C@@H]5CSCC(=O)N6CCN7CCN(CC6)C(=O)CSC[C@H](NC(=O)[C@H](Cc6cccc8ccccc68)NC(=O)[C@H](CC(=O)O)NC(=O)[C@H](C)NC(=O)[C@H](CC(=O)O)NC(=O)[C@@H](NC(=O)[C@H](C)N)CSCC7=O)C(=O)N[C@@H](CC(=O)O)C(=O)N[C@@H](C(C)C)C(=O)N6CCC[C@H]6C(=O)N[C@@H](CO)C(=O)N[C@@H](CC(C)C)C(=O)N6CCC[C@H]6C(=O)N5)C(N)=O)nn4)nn3)C(N)=O)NC(=O)[C@@H]3CCCN3C1=O)C(=O)CSC[C@H](NC(=O)[C@H](C)N)C(=O)N[C@@H](CC(=O)O)C(=O)N[C@@H](C)C(=O)N[C@@H](CC(=O)O)C(=O)N[C@@H](Cc1cccc3ccccc13)C(=O)N2 [BCY12262] | 0.017 nM | 3.29 nM | 68% | –
I: ACDADWCDVPSLPCAK-NH2 / II: ACDADWCDVPSLPCAK-NH2 / III: ACDADWCDVPSLPCAK-NH2 (linker I:2-I:7-I:14, II:2-II:7-II:14, III:2-III:7-III:14 via X1; linker I:16-II:16-III:16 via X3) [BCY12259] | 0.233 nM | – | 61% | 14.4 nM
I: ACDAD[1Nal]CDVPSLPCAK-NH2 / II: ACDAD[1Nal]CDVPSLPCAK-NH2 / III: ACDAD[1Nal]CDVPSLPCAK-NH2 (linker I:2-I:7-I:14, II:2-II:7-II:14, III:2-III:7-III:14 via X1; linker I:16-II:16-III:16 via X3) [BCY12260] | 0.109 nM | – | 64% | 9.62 nM

Reference: patent publication US12150998B2, “Bicyclic peptide ligands specific for P-selectin” (BicycleTx Limited, priority 2021, dated 2024)
